Tests used:
[1] = Anti-obesity test using Zucker fatty rats; type: in vivo; conditions: 100 mg/kg oral, once a day over 4 weeks, relative to control group
Source text: Anti-Obesity Test Using Zucker Fatty Rats
Zucker fatty rats are obese rats discovered by Zucker et al., in 1961 as mutants among 13 M rats, which are a hybrid between 13C and M rats. These rats (fa/fa) start to appear distinctly obese from normal broods around the age of 3 weeks. As they age, the weight difference between the fatty rats and normal rats increases. Zucker fatty rats are currently kept by a variety of organizations as simple obesity models, and are readily obtainable.
This test was performed using this rat model to evaluate the anti-obesity action of the compounds of the invention. The preparation method of test samples and the test procedures are described below:
The test samples were prepared in the same manner as in Test Example 2.
Zucker fatty rats and lean rats (both from Charles River Japan) were purchased at the age of 5 weeks. They were divided into groups (10 rats per group) according to body weight when they reached 6 weeks old. After acclimatization, the administration of test samples was initiated when the rats reached 8 weeks old. Test samples were orally administered using an oral gavage so that the compounds of the invention contained in the test samples were given in an amount of 100 mg/kg body weight (test sample dosage: 5 ml/kg body weight). The test samples were administered once a day over 4 weeks at a specific time of day.
As a control, a group of rats were administered with the same amount of 5% aqueous gum arabic solution (5 ml/kg body weight) instead of the test samples.
The rats of all groups were weighed on the last day of administration. The average body weight of the rats of each test group was compared with the average body weight (standard weight) of the rats of the control group to obtain the weight variations (differences). The weight differences were expressed as percentages in relation to the standard weight. The values thus calculated are referred to as “weight change %”. When a weight difference is negative relative to the standard weight, weight change % is shown with “−” (minus).
During the test period, the rats of the respective groups had free access to rat feed (“CRF-1”, manufactured by Oriental Yeast, Co., Ltd.) and water (tap water).

[2] = Therapeutical effect on olive oil-induced triglyceride hyperlipidemia models; type: in vivo; conditions: once a day for one week, SD rats, 2 h after olive oil
Procedure: Test of Therapeutical Effect on Olive Oil-Induced Triglyceride Hyperlipidemia Models
To conduct this test, 6-week-old SD rats (purchased from Charles River Japan) were used.
According to the body weight of the test rats when they were 5 weeks old, the test rats were divided into test groups and a control group with 6 rats per group.
A predetermined amount of each compound prepared in the Examples was measured and placed in an agate mortar. While 5% aqueous gum arabic solution was gradually introduced to the mortar, the compound was uniformly ground and suspended. Test samples were prepared by further adding 5% aqueous gum arabic solution gradually. Subsequently, these test samples were subjected to ultrasonic washing for 10 minutes to homogenize. Test samples were prepared as and when necessary.
The rats of the test groups were orally administered with the compounds of the invention such that rats received the compounds in an amount of 10, 30, or 100 mg/kg. The compounds of the invention were formulated as 5% gum arabic suspensions as described above.
The rats of the control group were orally administered with 5% aqueous gum arabic solution (not containing the compounds of the invention) in an amount of 5 ml/kg body weight. Administration was conducted once a day continuously for one week at a specific time of day after the rats reached 6 weeks of age. This test was performed under non-fasting conditions (rats had free access to feed and water), and the rats were fasted after the final administration of the compounds or 5% aqueous gum arabic solution.
Two hours after the final administration, olive oil was orally administered to the rats from both groups in an amount of 3 ml/kg body weight.
Two hours after the olive oil administration, blood was collected from the abdominal aorta of the rats of the respective groups using a heparinized syringe. The plasma was centrifugally separated from the blood at a temperature of 4° C., and the triglyceride level of the plasma was measured. A Hitachi 7170 automatic analyzer was used as the measuring instrument. Using the values measured from the test groups and control group, the decrease (%) in plasma triglyceride level was calculated according to the following equation: Decrease (%) in plasma triglyceride concentration=(1−E/C)×100 wherein E represents the average plasma triglyceride level in each test group; and C represents the average plasma triglyceride level in the control group.

[3] = Anti-obesity test using AKR mice (high-fat feed); type: in vivo; conditions: 1 mg per gram of feed in high-fat feed, 7 weeks, AKR/J mice, relative to high-fat feed control group
Source text: Anti-Obesity Test Using AKR Mice
Furthermore, this test enables the evaluation of therapeutic effects on diabetes. That is, it is reported that insulinemia can be observed in AKR/J mice when they are fed with a high-fat diet (see Am. J. Physiol. 266 (5 Pt 2), May 1994: R1423-8). It is thus known that insulinemia is strongly associated with diabetes (see, for example, J. Cardiovasc. Nurs. 16 (2), January 2002: 17-23). Therefore, this test can verify the therapeutic effects of the compounds of the present invention, used as test compounds, on diabetes.
For rat feed, powdered CRF-1 (Charles River Formula 1, manufactured by Oriental Yeast, Co., Ltd.) was used as normal feed. As high-fat feed, that prepared by blending CRF-1 with 18% safflower oil (Oriental Yeast, Co., Ltd.) was used.
Test substances were blended with the high-fat feed in an amount of 1 mg per gram of CRF-1.
AKR/J mice (from CLEA Japan, Inc.) were purchased at the age of 4 weeks. They were roughly divided into 2 groups according to body weight when the mice reached 5 weeks old. During this period, all mice were given the normal feed.
Subsequently, the mice of one group (8 mice) continued to be fed with the normal feed (normal feed group). The mice of the other group (8×(the number of the test substances+1) mice) were given the high-fat feed (high-fat feed group).
The body weight of the mice of each group was measured daily. […] These mice were further reared for 7 weeks (“test substances+high-fat feed groups”; n=8 per type of test substance). Specifically, the administration of the test substances was continued for 7 weeks. A group of mice to which high-fat feed containing no test substance was continued to be given was used as a control (high-fat feed control group; n=8).
Four hours after the feeding on the last day of the 7-week test (the last day of the test), the body weight of the mice of the “test substances+high fat feed groups” was measured. Blood was collected from the abdominal aorta of the mice using a heparinized syringe, and the leptin and insulin levels in the plasma were measured using an Elisa kit (produced by Morinaga). The mice of the other groups (normal feed group and high-fat feed control group) were reared till the last day of the test as above, and 4 hours after the last feeding on the last day of the test the measurements were performed according to the same procedures.
The average values of the test results (body weight, leptin level, and insulin level) of the test substances+high-fat feed groups to which the compounds prepared in Examples (Examples 10 and 58) were used as test substances (hereinbelow referred to as the “Example Compound 10-mixed high-fat feed group” and “Example Compound 58-mixed high-fat feed group”) were compared with the respective average values (standard values) of the results obtained from the mice of the high-fat control group to obtain the variations (differences). The differences were expressed as percentages in relation to the standard values. The values thus calculated were referred to as “weight change (%)”, “leptin level change (%)”, and “insulin level change (%)”. In the table below, the symbols “−” (minus) indicate that the differences are negative relative to the standard values.

melting point: 111 to 113 °C
Structure (SMILES): COc1cc(-c2cn3ccccc3n2)ccc1OCc1ccc(Br)cc1F [Example 58]
Weight Change (%) [1]: −19%
Decrease in plasma triglyceride level (%) ([2]; 10 mg/kg oral): 31%
Decrease in plasma triglyceride level (%) ([2]; 30 mg/kg oral): 66%
Decrease in plasma triglyceride level (%) ([2]; 100 mg/kg oral): 79%
Weight Change (%) [3]: −10%
Insulin level change (%) ([3]; plasma): −12%
Leptin level change (%) ([3]; plasma): −55%

Source: patent publication US8895599B2, “Lipoprotein lipase-activating compositions comprising benzene derivates” (Otsuka Pharmaceutical Factory, Inc., priority 2008, dated 2014)
